Laboratory results: patent US20230357179A1, “RAF KINASE INHIBITORS AND METHODS OF USE THEREOF” (Deciphera Pharmaceuticals, LLC, priority 2021, published 2023)

Assays:
WM3928 cells = experiment: WM3928 cell proliferation assay (1), resazurin, 96-well; type: cell-based; conditions: inhibition of cell proliferation
How it was run: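 IC50 was derived from resazurin fluorescence (ex 540, em 600 nm) after a 6–7 h dye incubation. Before that, cells had 67–72 h of compound exposure at 37 °C, 5% CO2.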

B-Raf kinase = molecular target: T1, B-Raf kinase (Homo sapiens, UniProt P15056); experiment: Biochemical assay for B-Raf.2 (coupled pyruvate kinase/lactate dehydrogenase); conditions: read-out: BRAF.2 IC50
T1 construct: GST (N); purchased Sigma
T1 sequence (P15056 416-766): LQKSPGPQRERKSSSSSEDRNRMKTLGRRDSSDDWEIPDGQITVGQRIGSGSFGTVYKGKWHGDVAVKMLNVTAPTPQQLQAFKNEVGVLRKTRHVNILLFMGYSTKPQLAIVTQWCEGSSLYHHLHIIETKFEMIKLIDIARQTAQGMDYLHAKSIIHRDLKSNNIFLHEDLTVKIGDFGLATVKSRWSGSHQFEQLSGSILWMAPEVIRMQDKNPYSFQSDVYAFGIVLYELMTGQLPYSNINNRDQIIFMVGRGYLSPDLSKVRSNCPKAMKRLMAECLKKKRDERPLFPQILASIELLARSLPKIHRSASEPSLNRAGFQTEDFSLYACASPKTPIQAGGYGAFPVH
Procedure: Biochemical Assay for B-Raf.2
(§1) Activity of B-Raf kinase (SEQ. ID NO: 2) was determined spectroscopically using a coupled pyruvate kinase/lactate dehydrogenase assay that continuously monitors the ATP hydrolysis-dependent oxidation of NADH (e.g., Schindler et al., Science, 2000, 289, 1938-1942). Assays were conducted in 384-well plates (25 μL final volume) using 2 nM B-Raf (Sigma), 1.5 units pyruvate kinase, 2.1 units lactate dehydrogenase, 1 mM phosphoenol pyruvate, 0.7 mM NADH, 50 nM MEK (SignalChem), and 1 mM ATP in assay buffer (100 mM Tris, pH 7.5, 15 mM MgCl2, 0.5 mM DTT, 0.1% octyl-glucoside, 0.002% (w/v) BSA, and 0.002% Triton X-100). Inhibition of B-Raf was measured by adding serial diluted test compound (final assay concentration of 1% DMSO). A decrease in absorption at 340 nm was monitored hourly for 4 h at 30° C. on a multi-mode microplate reader (BioTek). The reaction rate was calculated using the 2 to 3 h time frame. The reaction rate at each concentration of compound was converted to percent inhibition using controls (i.e., reaction with no test compound and reaction with a known inhibitor) and IC50 values were calculated by fitting a four-parameter sigmoidal curve to the data using Prism (GraphPad software).

C-Raf kinase = molecular target: T2, C-Raf kinase (Homo sapiens, UniProt P04049, Y340D/Y341D); experiment: Biochemical assay for C-Raf.2 (coupled pyruvate kinase/lactate dehydrogenase); conditions: read-out: CRAF.2 IC50
T2 construct: Y340D,; GST (N); purchased Sigma
T2 sequence (P04049 307-648 Y340D/Y341D): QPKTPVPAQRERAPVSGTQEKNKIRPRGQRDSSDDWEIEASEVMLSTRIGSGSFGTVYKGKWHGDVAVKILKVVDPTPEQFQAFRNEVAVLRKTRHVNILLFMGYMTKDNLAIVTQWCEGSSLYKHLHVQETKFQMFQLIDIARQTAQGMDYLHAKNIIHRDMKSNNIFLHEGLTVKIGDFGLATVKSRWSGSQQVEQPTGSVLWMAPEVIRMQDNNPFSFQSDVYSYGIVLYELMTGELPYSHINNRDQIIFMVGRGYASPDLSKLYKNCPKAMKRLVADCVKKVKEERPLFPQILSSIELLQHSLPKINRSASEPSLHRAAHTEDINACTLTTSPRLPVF
Procedure: Biochemical Assay for C-Raf.2
as §1, with “of C-Raf” for “of B-Raf”, “NO: 3)” for “NO: 2)”, “using 3.84” for “using 2”, “nM C-Raf (Eurofins),” for “nM B-Raf (Sigma),”

A375 cells = experiment: A375 cell proliferation assay (2), resazurin, 384-well; type: cell-based; conditions: Homo sapiens, A-375, inhibition of cell proliferation, 67-72 h
Procedure: A375 Cell Proliferation Assay (2)
A375 cells (catalog (#CRL-1619) are obtained from the American Type Culture Collect (ATTC, Manassas, VA). Briefly, cells were grown in DMEM High Glucose supplemented with 10% characterized fetal bovine serum (Invitrogen, Carlsbad, CA) and 1% Penicillin/Streptomycin/L-Glutamine at 37° C., 5% CO2, and 95% humidity. Cells are expanded until reaching 70-95% confluency at which point they are sub-cultured or harvested for assay use. Using the Beckman Coulter Echo 650, a serial dilution of test compound is dispensed into a 384-well black clear bottom plate in triplicate. Six hundred twenty-five cells are added per well in 50 μL complete growth medium in the 384-well plate. Plates are incubated for 67-72 h at 37° C., 5% CO2, and 95% humidity. At the end of the incubation, 10 μL of a 440 μM solution of resazurin (Sigma, St. Louis, MO) in PBS is added to each well of the plate and plates are incubated for an additional 3-6 h at 37° C., 5% CO2, and 95% humidity. Plates are read on a Synergy2 or equivalent reader (Biotek, Winooski VT) using an excitation of 540 nm and an emission of 600 nm. Data is analyzed using Prism software (GraphPad, San Diego, CA) to calculate IC50 values.

SMILES | IC50 (WM3928 cells) [nM] | IC50 (B-Raf kinase) [nM] | IC50 (C-Raf kinase) [nM] | IC50 (A375 cells) [nM]
COC(=O)Nc1cc(-c2cccc(-c3cc(NC(=O)NCCC(C)(C)OC)c(F)cc3C)c2)ccn1 [Example 85] | 100 to 500 | – | – | –
Cc1cc(F)c(NC(=O)NCCC2(C)CC2)cc1-c1cc(OCCO)nc(-c2ccnc3[nH]ncc23)c1 [Example 87] | ≤ 100 | – | – | –
Cc1cc(F)c(NC(=O)N[C@@H]2CC[C@H](F)C2)cc1-c1cc(OCCO)nc(-c2ccnc3[nH]ncc23)c1 [Example 88] | 1000 to 10000 | – | – | –
Cc1cc(F)c(NC(=O)NCC[C@@H]2CCO2)cc1-c1cc(OCCO)nc(-c2ccnc3[nH]ncc23)c1 [Example 89] | 1000 to 10000 | – | – | –
COC(C)(C)CCNC(=O)Nc1cc(-c2cc(OCCO)nc(-c3ccnc4[nH]ccc34)c2)c(C)cc1F [Example 90] | 500 to 1000 | – | – | –
COC(C)(C)CCNC(=O)Nc1cc(-c2cc(OCCO)nc(-c3ccnc4[nH]ncc34)c2)c(C)cc1F [Example 91] | 100 to 500 | – | – | –
Cc1cc(F)c(NC(=O)N2CCC(C)(C#N)CC2)cc1-c1cc(OCCO)nc(-c2ccnc3[nH]ncc23)c1 [Example 92] | 1000 to 10000 | – | – | –
CNC(=O)c1cc(-c2cc(-c3cc(NC(=O)N4CC[C@H](C(F)(F)F)C4)ccc3C)ccn2)ccn1 [Example 215] | 500 to 1000 | 100 to 500 | ≤ 100 | –
CNC(=O)c1cc(-c2cncc(-c3cc(NC(=O)N4CC[C@H](C(F)(F)F)C4)ccc3C)c2)ncn1 [Example 220] | – | 100 to 500 | 100 to 500 | 1000 to 10000
COC(=O)Nc1cc(-c2cncc(-c3cc(NC(=O)N4CC[C@H](C(F)(F)F)C4)ccc3C)c2)ncn1 [Example 224] | 100 to 500 | ≤ 100 | ≤ 100 | –
CNC(=O)c1cc(-c2cc(-c3cc(NC(=O)N4CC[C@H](C(C)C)C4)ccc3C)ccn2)ccn1 [Example 225] | – | 100 to 500 | 100 to 500 | 100 to 500
CNC(=O)c1cc(-c2cncc(-c3cc(NC(=O)N4CC[C@H](C(C)C)C4)ccc3C)c2)ncn1 [Example 226] | – | 500 to 1000 | 100 to 500 | 500 to 1000
Cc1ccc(NC(=O)N2CC[C@H](C)C2)cc1-c1cncc(-c2cc(NC(=O)C3CC3)ncn2)c1 [Example 227] | – | ≤ 100 | ≤ 100 | 1000 to 10000
CNC(=O)c1cc(-c2cncc(-c3cc(NC(=O)N4CC[C@H](C(F)(F)F)C4)ccc3C)c2)ccn1 [Example 228] | – | 100 to 500 | 100 to 500 | 1000 to 10000
CNC(=O)c1cc(-c2cncc(-c3cc(NC(=O)N4CC[C@H](C(C)C)C4)ccc3C)c2)ccn1 [Example 229] | – | 100 to 500 | ≤ 100 | 100 to 500
